{"source": "patent US20170029388A1", "about": "“Treatment of Neurodegenerative Diseases with Asparagine Endopeptidase (AEP) Inhibitors and Compositions Related Thereto” (INTERCONTINENTAL GREAT BRANDS LLC, priority 2014, published 2017)", "test_system": "5XFAD mice", "experiment": "Synaptic density, spine density and LTP in 5XFAD mice", "format": "in vivo, mouse", "description": "A. Representative electron microscopy of the synaptic structures. Arrows indicate the synapses. B. Quantitative analysis of the synaptic density in vehicle—and compound 11-treated 5XFAD mice. Data are shown as mean ±SEM (n=3 mice per group). * p <0.01. C. […] Scale bar, 5 μm. D. Quantitative analysis of the spine density. […] E. Long-term potentiation (LTP) of fEPSPs was induced by 3× TBS (4 pulses at 100 Hz, repeated 3 times with a 200-ms interval). Shown traces are representative fEPSPs recorded at the time point 1 and 2 (vehicle treated), 3 and 4 (compound 11-treated mouse). […] Data are presented as mean±SEM. *p<0.05 vs vehicle-treated mice. F. Synaptic transmission assessed by input/output (I/O) relation between stimuli intensity and fEPSP slope. I/O curves obtained in hippocampal slices prepared from vehicle- and compound 11-treated 5XFAD mice.\nSynaptic dysfunction is the early feature of AD and is believed to be the basis of cognitive impairment. 5XFAD mice show decreased synaptic density compared to non-transgenic control mice. […] The density of dendritic spines along individual dendrites of pyramidal neurons was assessed by Golgi stain. […] Long-term potentiation (LTP) is a measure of synaptic plasticity that underlies learning and memory. 5XFAD mice have decreased LTP magnitude at Schaffer collateral-CA1 pathways.\nSynaptic density was determined by electron microscopy as described previously (22). After deep anesthesia, mice were perfused transcardially with 2% glutaraldehyde and 3% paraformaldehyde in PBS. […]\nElectrophysiological analysis was carried out as previously described (23). […] The field excitatory post-synaptic potentials (fEPSPs) were recorded in CA1 stratum radiatum by a glass microelectrode filled with a-CSF with resistance of 3-4 MEI The stimulation output (Master-8; AMPI, Jerusalem) was controlled by the trigger function of an EPC9 amplifier (HEKA Elektronik, Lambrecht, Germany). fEPSPs were recorded under current-clamp mode. […] The magnitudes of LTP are expressed as the mean percentage of baseline fEPSP initial slope. […]", "note": "“Also recorded” adds a separate entry of the source.", "data": [{"smiles": "Nc1ccc(N2CCOCC2)c2nonc12", "note": "[Compound 11]", "values": [{"measurement": "density of dendritic spines (Golgi stain)", "setting": "5XFAD mice", "value": "increased; also recorded: reversed"}, {"measurement": "density of synapse (electron microscopy)", "setting": "CA1 area, 5XFAD mice", "value": "notably increased"}, {"measurement": "long-term potentiation (LTP) magnitude", "setting": "Schaffer collateral-CA1, 5XFAD mice", "value": "significantly reversed the LTP deficits; also recorded: enhanced"}]}]}
